The test system of test [1] is pS2152FLNA, FLNA-associated PTEN and PP2A in primary lung fibroblast cells. Kind of test: pS2152FLNA and FLNA-associated PTEN and PP2A in anti-FLNA immunoprecipitate (Western blotting). Conditions: 0.1-5 nM; 4 days. The format is cell-based, human. The procedure: The effect of contact with Compound C0105 on the levels of pS^2152FLNA and FLNA-associated phosphatases, PTEN and PP2A subclasses was determined in primary lung fibroblast cells. Cells were treated with vehicle and 0.1-5 nM Compound C0105 for 4 days. Cells were washed, solubilized and the resultant cell lysate was immunoprecipitated with anti-FLNA. The levels of pS^2152FLNA and FLNA-associated phosphatases, PTEN and PP2A subclasses in the anti-FLNA immunoprecipitate were determined by Western blotting. The density of protein bands was measured by densitometric scanning. […] N=4. **p<0.05, *p<0.01 compared to vehicle (open bars). […]
(§1) The cell lysates were diluted 5-fold with immunoprecipitation buffer and immunoprecipitated with anti-FLNA, -Akt, -mTOR and -ERK2 as described previously [Talbot et al., J Clin Inv 122(4):1-23 (2012); Wang et al., J Neurosci 32(29):9773-9784 (2012)]. The levels of FLNA linkages, activated phosphorylated Akt (pS^473 and pT^308), phosphorylated mTOR (pS^2448) and phosphorylated ERK2 (pY/pT) were determined in anti-FLNA, -Akt, -mTOR and -ERK2 immunoprecipitates by Western blotting with appropriate antibodies directed against PTEN, PP2A, K-RAS, ras-GAP (FLNA linkages), pS^473Akt, pT^308Akt, pS^2448mTOR and pY/pT ERK2 (activation of Akt, mTOR and ERK2).
A general note: Immunoblotting shows a protein as a band on a membrane.

Test [2] concerns FLNA-bound K-ras and ras-GAP in BxPc3 cells. Kind of test: FLNA-bound K-ras and ras-GAP (immunoprecipitation, Western blotting). Type of test: cell-based, human. The conditions noted are these: 0.1, 0.5, 1 and 5 nM. The procedure:
(§2) Thus, melanoma, two different pancreatic cancerous cell lines (MiaPaCa2 and BxPc3) and a glioblastoma cell line (U87) were treated with zero (vehicle), 0.1, 0.5, 1 and 5 nM Compound C0105 as previously discussed, and FLNA-bound K-ras and ras-GAP were immunoprecipitated, separated by Western blotting and the blot densities determined as discussed previously.
(§3) To study the effect of Compound C0105 on pS^2152FLNA levels, FLNA linkages to key regulators including protein phosphatases as well as activated Akt (pS^473-, pT^308-Akt), mTOR ([…]) and ERK (pY/pT-ERK) levels, the cancer and normal cells were cultured to approximately 90% confluency and treated with vehicle or varying concentrations of Compound C0105. The cells were washed with warm phosphate-buffered saline (PBS), pH 7.2, dissociated, homogenized by sonication and solubilized using 0.5% NP-40 (nonoxynol 40), 0.2% sodium cholate and 0.5% digitonin for 1 hour at 4° C.
as §1

Test [3] has as its system FLNA-bound K-ras and ras-GAP in MiaPaCa2 cells. The description is as above. The conditions noted are these: 0.1, 0.5, 1 and 5 nM. The format is cell-based, human. The procedure: as §2, §3, §1
Test [4] deals with FLNA-bound K-ras and ras-GAP in melanoma cells. The test is described as above. The format is cell-based, human. Conditions: 0.1, 0.5, 1 and 5 nM. The procedure:
as §2, §3, §1

Test [5] relates to pS2448mTOR, pS473Akt, pY/pT-ERK2 in small-cell lung carcinoma cells. Kind of test: Activated (phosphorylated) mTOR, Akt and ERK2 levels (immunoprecipitation, Western blotting). Conditions: 0.1-5 nM; 4 days. Type of test: cell-based, human. The procedure:
(§4) Cells were treated with vehicle and 0.1-5 nM C0105 for 4 days. Cells were washed, solubilized and the resultant cell lysate was immunoprecipitated with anti-mTOR, -Akt or -ERK2. The levels of pS^2448mTOR, pS^473Akt, pY/pTERK2 in the respective anti-mTOR, -Akt, and -ERK2 immunoprecipitates were determined by Western blotting. […] The density of protein bands was measured by densitometric scanning. […] N=4. *p<0.01 compared to vehicle (open bars). […]
as §1

Test [6] deals with pS2448mTOR, pS473Akt, pY/pT-ERK2 in primary lung fibroblast cells. The test is described as above. The format is cell-based, human. The conditions noted are these: 0.1-5 nM; 4 days. The procedure: as §4, §1
The test system of test [7] is pS2152FLNA, FLNA-associated PTEN and PP2A in primary human pancreatic epithelial cells (HPEC). The test is described as follows: pS2152FLNA and FLNA-associated PTEN and PP2A in anti-FLNA immunoprecipitate (Western blotting). The format is cell-based. Conditions: 0.1-5 nM; 4 days. The procedure:
(§5) The effect of contact with Compound C0105 on the levels of pS^2152FLNA and FLNA-associated phosphatases, PTEN and PP2A subclasses was determined in MiaPaCa2 and HPECs. Cells were contacted with vehicle and 0.1-5 nM Compound C0105 for 4 days. Cells were washed, solubilized and the cell lysate derived was immunoprecipitated with anti-FLNA. The levels of […] and FLNA-associated phosphatases, PTEN and PP2A subclasses in the anti-FLNA immunoprecipitate were determined by Western blotting. The density of protein bands was quantified by densitometric scan. […] Data are expressed as mean±S.E.M. of ratios (FIGS. 27C, 27E and 27G) and percentage inhibition (FIGS. 27D, 27F and 27H). […] N=4. **p<0.05, *p<0.01 compared to vehicle (open bars). […]
as §1

Test [8] deals with pS2152FLNA, FLNA-associated PTEN and PP2A in pancreatic cancer MiaPaCa2 cells. The test is described as above. Type of test: cell-based, human. The conditions noted are these: 0.1-5 nM; 4 days. The procedure:
as §5, §1

In test [9] the test system is pS2448mTOR, pS473Akt, pY/pT-ERK2 in melanoma cells. The test is described as follows: Activated (phosphorylated) mTOR, Akt and ERK2 levels (immunoprecipitation, Western blotting). The conditions noted are these: 0.1-5 nM; 4 days. The format is cell-based, human. The procedure: FIG. 11A through FIG. 11C illustrate the effect of contact with Compound C0105 on the levels of activated (phosphorylated) mTOR (pS^2448mTOR), Akt (pS^473Akt) and ERK2 (pY/pT-ERK2) in melanoma cells. Cells were treated with vehicle and 0.1-5 nM Compound C0105 for 4 days. Cells were washed, solubilized and the resultant cell lysate was immunoprecipitated with anti-mTOR, -Akt or -ERK2. The levels of pS^2448mTOR, pS^473Akt, pY/pTERK2 in the respective anti-mTOR, -Akt, and -ERK2 immunoprecipitates were determined by Western blotting. The density of protein bands was measured by densitometric scanning. […] N=4. *p<0.01 compared to vehicle (open bars). […]
as §1

Turning to `CN1CCC2(CC1)NCC(=O)N2Cc1ccccc1` [Compound C0105], the “FLNA-associated PTEN and PP2A levels” value was “does not affect” in [1]; “increases FLNA-associated PTEN and PP2A levels” in test [8]. Also, the results for the pS2152FLNA level result in test [1], in [7] and in test [8] were “does not affect”, “no effect” and “reduces pS^2152FLNA”, respectively. The “FLNA-bound K-ras” value in [2], in test [3] and in test [4] was “reduces K-ras” throughout. Further, the “FLNA-bound Ras-GAP” value in test [2], in test [3] and in test [4] was “increases Ras-GAP” each time. The “mTOR, Akt and ERK activation (phosphorylated mTOR, Akt and ERK)” value in test [5] is “robustly reduces mTOR, Akt and ERK activation”; in [6], “little effect on mTOR, Akt and ERK activation”; in [9], “robustly reduces mTOR, Akt and ERK activation”. Moreover, the “Phosphatase (PTEN, PP2A) associations with FLNA” value in test [7] was “no effect”.
